One may read the MIC as the smallest concentration in the dilution series that meets the test's criterion for growth inhibition. Read a low MIC as greater potency.

These results are taken from article PMC7988117, “OMN6 a novel bioengineered peptide for the treatment of multidrug resistant Gram negative bacteria” (Scientific Reports, 2021).

One data set concerns Enterococcus faecium. The settings on record: E. faecium ATCC BAA-2319 (MDR/Van-R); CLSI broth microdilution, Muller-Hinton broth, 18–24 h, 35 ± 2 °C. The method, then: (§1) This experiment was conducted by Omnix Medical, by JMI Laboratories (North Liberty, IA, USA) and by Aptuit (Verona) S.r.l. (Italy), an Evotec Company. All studies were performed according to Clinical and Laboratory Standards Institute guidelines[30] for the application of the broth microdilution method. Reference strains from American Type Culture Collection (ATCC) and clinical isolates from the Evotec EvostrAIn and the JMI Laboratories SENTRY surveillance program culture collections (Acinetobacter baumannii: ACC 00445, ACC 00527, ACC 00535, ATCC 17978, ATCC 19606, ATCC BAA-1793, ACC 01076, ACC 01077, NCTC 13420, JMI #1088100 and JMI #1001007; Klebsiella pneumoniae: ATCC 43816 and ATCC BAA-1705; Escherichia coli: ACC 01001 and ATCC 25922; Staphylococcus aureus: ATCC 29213, ATCC BAA-44 and ATCC 33591; Bacillus cereus: ATCC 14579; Enterococcus faecalis: ATCC 29212; Enterococcus faecium: ATCC BAA-2319) were used. The antimicrobial activity of OMN6 was determined by 12 serial two-fold dilutions in water of the 100-fold highest compound solution; 1 µL of each well was transferred into 96 microtiter plates (final concentration: 256–0.12 µg/mL). In most strains, same procedure was used to determine the colistin antimicrobial activity (final concentration: 32–0.015 µg/mL). Bacterial strains were sub-cultured on the agar plates and incubated for 18–24 h at 35 ± 2 °C in ambient air. Following incubation, the inoculum was prepared from isolated colonies and adjusted to 0.5 McFarland turbidity standard (1 to 2 × 10^8 colony-forming units/mL) in 0.9% saline. Bacterial suspension was then diluted 1:200 in Muller-Hinton broth (from BD; Becton, Dickinson and Company, Franklin Lakes, NJ, USA) and within 15 min 100 µL/well were dispensed. Growth-control wells and sterility-check wells (uninoculated well) were present in each plate. Plates were incubated for 18–24 h at 35 ± 2 °C in ambient air. […] The antimicrobial activity to other antibiotics on most bacterial strains was determined by Evotec using the antimicrobial sensitive test from the VITEK 2 automated microbiology system (bioMérieux SA, Marcy l'Etoile, France; data presented in Table S1), or by ATCC according to CLSI (Clinical and Laboratory Standards Institute) guidelines[30]
On the technique in general: In broth dilution the organism is exposed to a series of concentrations in liquid medium.

The next data set concerns Enterococcus faecalis. To be noted: E. faecalis ATCC 29212 (Van-S); CLSI broth microdilution, Muller-Hinton broth, 18–24 h, 35 ± 2 °C. The method, then: as §1
The next data set concerns Bacillus cereus. The settings on record: B. cereus ATCC 14579; CLSI broth microdilution, Muller-Hinton broth, 18–24 h, 35 ± 2 °C. The method, then:
as §1

The test system of a further data set is Gram-negative bacteria. To be noted: summary of Table 1, regardless of resistance profile. How it is done:
as §1

The next data set concerns Escherichia coli. To be noted: CLSI broth microdilution, Muller-Hinton broth, 18–24 h, 35 ± 2 °C. The method, then:
as §1

In a further data set the test system is Acinetobacter baumannii. The settings on record: for MIC: CLSI broth microdilution, Muller-Hinton broth, 18–24 h, 35 ± 2 °C. How it is done:
as §1

In another data set the test system is E. coli GFPuv. It is filed as cell-based, Escherichia coli. How it is done:
E. coli GFPuv bacteria (contribution from Dr. Tsafi Danieli, head of the Protein Expression Facility at the Hebrew University of Jerusalem, Israel) were grown in LB broth (BD) and induced to express the Green Fluorescent Protein (GFP) in auto-induction medium, as previously described by F.W. Studier[31]. Briefly, bacteria were cultured for 3 h at 37 °C while shaking at 200 rpm, in induction medium ZYP-5052 containing 1% N-Z amine AS, 0.5% yeast extract, 50 mM Na2HPO4, 50 mM KH2HPO4, 25 mM (NH4)2SO4, 2 mM MgSO4, 0.5% glycerol, 0.05% glucose and 0.2% lactose. For the bacterium visualization experiment, 2 × 10^6 colony-forming units (CFU) were treated by 16 µg/mL OMN6 or Double-Distilled Water (DDW) for 60 min. Bacteria were monitored with a confocal microscope at a wavelength of 488 nm. Then, bacteria were seeded on LB agar (BD) plates, incubated at 37 °C for 24 h, and CFU were counted. For the supernatant visualization and quantification experiment, 10^5 CFU were co-incubated with 50 µM OMN6 or DDW for 30 min, and bacteria were collected and centrifuged at 5000 rpm for 10 min. Experiment tubes were visualized under UV light. Then, supernatants were collected, and the absence of a significant quantity of bacteria in the supernatants was checked in a microplate reader by absorbance at 600 nm (OD < 0.05). Fluorescence levels were then quantified with excitation at 395 nm and emission at 509 nm.

Data set [1] has as its system Acinetobacter baumannii clinical isolates. As to the kind of experiment: Time-kill studies. It is filed as cell-based. How it is done: Time-kill experiments were performed by JMI Laboratories (North Liberty, IA, USA) as described in chapter 5.14 of the Clinical Microbiology Procedures Handbook[32] and the CLSI M26-A[33] document. Two Acinetobacter baumannii clinical isolates (JMI colistin-sensitive strain #1088100 and colistin-resistant strain #1001007) were used for this study. MIC values that were determined in Difco Muller Hinton Broth (BD) for OMN6 and colistin as described above, were used as the baseline values during time-kill testing. In the time-kill experiments, OMN6 and colistin were tested in Difco Muller Hinton Broth. The time-kill cultures were sampled at 0, 2, 4, 8, and 24 h after compound addition. The number of CFU/mL in each culture was measured by plating 100 μL of serial dilutions onto blood agar plates. Colonies were counted after 48 h of growth at 35 °C. Time-kill curves were generated by plotting CFU/mL as log10 values over time. The limit of detection was 10 CFU/mL. Bactericidal activity was defined as a ≥ 99.9% reduction (i.e., a ≥ 3 log10 decrease) in the number of input bacterial cells at any arbitrary timepoint.

In brackets after ≈: the same amount, converted by molar mass. Read-outs that look alike come from different tables or passages of the source. Bridge positions count the residues as written; N and C are the ends. Peptide text beside a SMILES is read from it.

`CC[C@H](C)[C@@H]1NC(=O)CNC(=O)[C@H](CC(=O)O)NC(=O)[C@H](CCCNC(=N)N)NC(=O)[C@H]([C@@H](C)CC)NC(=O)[C@H](CC(N)=O)NC(=O)[C@H](CCC(N)=O)NC(=O)CNC(=O)[C@H](C(C)C)NC(=O)[C@H](CCCCN)NC(=O)[C@H](CCC(=O)O)NC(=O)[C@H]([C@@H](C)CC)NC(=O)[C@H](CCCCN)NC(=O)[C@H](CCCCN)NC(=O)[C@H](Cc2ccccc2)NC(=O)[C@H](CC(C)C)NC(=O)[C@H](CCCCN)NC(=O)[C@H](Cc2c[nH]c3ccccc23)NC(=O)[C@H](CCCCN)NC(=O)[C@@H](NC(=O)[C@@H](N)CCSC)CSSC[C@@H](C(N)=O)NC(=O)[C@H](CCCCN)NC(=O)[C@H](C)NC(=O)[C@H]([C@@H](C)CC)NC(=O)[C@H](CCC(N)=O)NC(=O)[C@H]([C@@H](C)O)NC(=O)[C@H](C)NC(=O)[C@H](CCC(N)=O)NC(=O)CNC(=O)[C@H](C(C)C)NC(=O)[C@H](C(C)C)NC(=O)[C@H](C)NC(=O)[C@H](C(C)C)NC(=O)[C@H](C)NC(=O)[C@@H]2CCCN2C(=O)CNC(=O)[C@H](C)NC(=O)[C@H](CCCCN)NC(=O)[C@H]([C@@H](C)CC)NC1=O` [OMN6] (H-MCKWKLFKKIEKVGQNIRDGIIKAGPAVAVVGQATQIAKC-NH2; disulfide 2-40; N-terminus assumed): the MIC with Enterococcus faecium was > 256 mg/L; with Enterococcus faecalis, > 256 mg/L; in the data set with Bacillus cereus it was > 256 mg/L; with Escherichia coli (E. coli ACC 01001 (mcr-1)), 32 mg/L (≈ 7.37 µM); in the data set on Escherichia coli (E. coli ATCC 25922 (S)) it was 16 mg/L (≈ 3.69 µM); with Acinetobacter baumannii (A. baumannii ACC 00445 (MDR/Col-S)), 4 mg/L (≈ 0.922 µM). Moreover, the MIC was determined as 4 mg/L (≈ 0.922 µM) against Acinetobacter baumannii (A. baumannii ACC 00527 (MDR/Col-R)); 4 mg/L (≈ 0.922 µM) in the data set on Acinetobacter baumannii (A. baumannii ACC 00535 (MDR/Col-S)); 8 mg/L (≈ 1.84 µM) against Acinetobacter baumannii (A. baumannii ACC 01076 (MDR/Col-R)); 4 mg/L (≈ 0.922 µM) in the data set with Acinetobacter baumannii (A. baumannii ACC 01077 (MDR/Col-R)); 8 mg/L (≈ 1.84 µM) against Acinetobacter baumannii (A. baumannii ATCC 17978 (S)); 8 mg/L (≈ 1.84 µM) in the data set on Acinetobacter baumannii (A. baumannii ATCC 19606 (S)). In addition, the MIC in the data set with Acinetobacter baumannii (A. baumannii ATCC BAA-1793 (MDR)) was found to be 8 mg/L (≈ 1.84 µM). In the data set on Gram-negative bacteria, the “MIC on Gram-negative bacteria (all tested strains)” value is ≤ 32 mg/L. The “MICs of the A. baumannii strains” value in the data set on Acinetobacter baumannii (summary of Table 1, sensitive and multidrug resistant strains) lay within 4 to 8 µg/mL. The “Reduction in fluorescence arbitrary units (FU) of a bacterium, T = 0 h to T = 1 h (GFP leakage)” value with E. coli GFPuv (16 µg/mL, 60 min, confocal microscope 488 nm, single bacterium) is 12,000 FU. Besides, the “CFU on agar plates after treatment (bacterial death)” value in the data set with E. coli GFPuv (2 × 10^6 CFU, 16 µg/mL, 60 min, then LB agar 37 °C 24 h, data not shown) is given as “No CFU”. The “Level of fluorescence (FU) in supernatants vs DDW control” value in the data set on E. coli GFPuv (E. coli GFPuv 10^5 CFU, 50 µM, 30 min, centrifuged 5000 rpm, excitation 395 nm, emission 509 nm, p = 0.01) is given as “distinct increase”. The “Bactericidal pattern on colistin-resistant strain” value in data set [1] (colistin-resistant A. baumannii JMI #1001007, similar timeframe and concentrations as on the colistin-sensitive strain) is “retained its bactericidal pattern”. In addition, the “Concentrations with bactericidal effect after 2 h of incubation” value in data set [1] (colistin-sensitive A. baumannii JMI #1088100, Difco Muller Hinton Broth, bactericidal = ≥ 3 log10 decrease) was > 8 µg/mL. In data set [1] (colistin-sensitive A. baumannii JMI #1088100, Difco Muller Hinton Broth, sampled 0, 2, 4, 8, 24 h), the “Re-growth during the 24 h timeframe” value is recorded as “No re-growth”.
